Measurements from patent publication US20220143072A1, “Chitosan nitrate for use as a nitric oxide donor (NO donor)” (NO-ceuticals B.V., priority 2019, published 2022).

Assay: Fasting salivary nitrate and nitrite after oral nitrate (Quantofix test strips)
Design: species or system human
Conditions: in vivo
Procedure: Measuring the fasting value of salivary nitrate and nitrite does give a reflection of the plasma value of nitrate and nitrite. The patient took one capsule chitosan nitrate, containing 120 mg NO3− anion, at 11:00 pm. […] An equivalent amount of 120 mg NO3− was taken at 11:00 pm. […] Oligo chitosan is absorbed before reaching the colon and NO3− will then also be absorbed. Quantofix test strips nitrate and nitrite from Macherey-Nagel company, Germany, were used for measurement of NO3− and NO2−. These test strips allow semiquantitative measurement. Reading of the test strips was performed with a Quantofix Relax reader. Other tests were done based on the ingestion of the daily dose in the morning and by measuring the salivary nitrate and salivary nitrite 24 hours later. Two capsules of chitosan nitrate contained an equivalent amount of 240 mg NO3−. Ten measurements were done for both chitosan nitrate and KNO3 salt.

Substance: chitosan nitrate
- nitrite values in saliva relative to KNO3: three times higher
